# Test results reported in ChEMBL document CHEMBL4619774 (J Med Chem, 2020).
# Legend:
# [1] = Dose normalized AUC in C57BL/6 mouse at 3 mg/kg, po by LC-MS/MS analysis; assay type: ADME, organism-based; conditions: in vivo
# [2] = biological target: Plasma kallikrein (Homo sapiens, UniProt P03952); assay type: single protein
# [3] = biological target: T1, Coagulation factor XI (Homo sapiens, UniProt P03951); assay: Inhibition of […] human plasma F11a catalytic domain expressed in Escherichia coli strain BL21(DE3) using D-Leu-Pro-Arg*Rh110-D-Pro as substrate preincubated for 60 mins followed by substrate addition and measured after 60 mins by fluorescence assay
# T1 sequence (P03951 19-387 limits assumed): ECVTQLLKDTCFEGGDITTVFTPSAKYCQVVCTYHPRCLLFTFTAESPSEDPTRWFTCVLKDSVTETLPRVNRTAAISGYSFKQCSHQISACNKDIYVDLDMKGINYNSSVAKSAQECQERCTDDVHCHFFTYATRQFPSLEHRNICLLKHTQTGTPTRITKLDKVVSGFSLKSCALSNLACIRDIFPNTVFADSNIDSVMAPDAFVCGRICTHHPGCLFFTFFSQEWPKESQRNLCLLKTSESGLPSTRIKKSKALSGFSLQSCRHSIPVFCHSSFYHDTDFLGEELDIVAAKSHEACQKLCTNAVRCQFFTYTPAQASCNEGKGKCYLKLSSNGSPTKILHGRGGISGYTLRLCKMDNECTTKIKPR
# T1 sequence (P03951 388-625 limits assumed): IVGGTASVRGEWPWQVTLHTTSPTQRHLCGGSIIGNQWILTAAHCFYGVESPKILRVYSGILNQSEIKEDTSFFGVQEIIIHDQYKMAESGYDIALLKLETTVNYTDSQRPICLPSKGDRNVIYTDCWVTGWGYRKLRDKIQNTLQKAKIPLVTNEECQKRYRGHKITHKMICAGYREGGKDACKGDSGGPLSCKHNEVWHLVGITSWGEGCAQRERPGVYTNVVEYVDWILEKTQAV
# [4] = Volume of distribution at steady state in C57BL/6 mouse at 1 mg/kg, iv bolus injection or 3 mg/kg, po by LC-MS/MS analysis; assay type: ADME, organism-based; conditions: in vivo, read-out: Vdss
# [5] = Terminal half life in C57BL/6 mouse at 1 mg/kg, iv bolus injection or 3 mg/kg, po by LC-MS/MS analysis; assay type: ADME, organism-based; conditions: in vivo, read-out: beta t1/2 (converted)
# [6] = biological target: Complement factor D (Homo sapiens, UniProt P00746); assay type: single protein
# Sequence of Complement factor D (P00746 whole entry): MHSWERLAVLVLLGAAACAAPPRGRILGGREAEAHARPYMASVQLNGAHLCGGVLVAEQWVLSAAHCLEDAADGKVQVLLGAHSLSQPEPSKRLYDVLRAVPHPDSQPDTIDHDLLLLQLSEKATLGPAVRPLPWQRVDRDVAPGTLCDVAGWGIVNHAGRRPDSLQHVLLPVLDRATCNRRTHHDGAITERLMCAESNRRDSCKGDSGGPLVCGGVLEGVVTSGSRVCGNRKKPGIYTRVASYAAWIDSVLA
# [7] = Oral bioavailability in C57BL/6 mouse at 3 mg/kg by LC-MS/MS analysis; assay type: ADME, organism-based; conditions: in vivo
# [8] = in vitro; conditions: human, Caco-2
# [9] = physchem; conditions: aqueous buffer, pH 6.8
# [10] = biological target: T1, Coagulation factor XI; assay: Inhibition of human F11a using D-Leu-Pro-Arg*Rh110-D-Pro as substrate preincubated for 60 mins followed by substrate addition and measured after 60 mins by fluorescence assay
# [11] = Clearance in C57BL/6 mouse at 1 mg/kg, iv bolus injection or 3 mg/kg, po by LC-MS/MS analysis; assay type: ADME, organism-based; conditions: in vivo
# [12] = human, caco-2; BLD = below limit of detection
# [13] = Dose normalized Cmax in C57BL/6 mouse at 1 mg/kg, iv bolus injection or 3 mg/kg, po by LC-MS/MS analysis; assay type: ADME, organism-based; conditions: in vivo
# [14] = species: Homo sapiens; assay: Selectivity ratio of IC50 for inhibition of human complement FD to IC50 for inhibition of human F11a
# [15] = biological target: Plasminogen (Homo sapiens, UniProt P00747); assay type: single protein
# Sequence of Plasminogen (P00747 97-580 limits assumed): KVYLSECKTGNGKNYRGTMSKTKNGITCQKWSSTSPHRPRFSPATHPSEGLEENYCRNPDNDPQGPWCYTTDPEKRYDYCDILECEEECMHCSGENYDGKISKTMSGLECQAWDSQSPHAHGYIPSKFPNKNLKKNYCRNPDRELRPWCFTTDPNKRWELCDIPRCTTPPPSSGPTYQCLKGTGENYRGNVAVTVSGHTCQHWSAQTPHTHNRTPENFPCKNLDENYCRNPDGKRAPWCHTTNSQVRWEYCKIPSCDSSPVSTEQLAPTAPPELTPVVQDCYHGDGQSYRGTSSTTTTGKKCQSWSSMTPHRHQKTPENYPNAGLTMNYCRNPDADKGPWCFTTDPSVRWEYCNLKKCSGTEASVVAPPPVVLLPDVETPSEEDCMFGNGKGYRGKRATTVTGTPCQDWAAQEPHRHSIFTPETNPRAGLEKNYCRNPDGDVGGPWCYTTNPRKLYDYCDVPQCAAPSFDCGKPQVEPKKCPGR
# Sequence of Plasminogen (P00747 581-810 limits assumed): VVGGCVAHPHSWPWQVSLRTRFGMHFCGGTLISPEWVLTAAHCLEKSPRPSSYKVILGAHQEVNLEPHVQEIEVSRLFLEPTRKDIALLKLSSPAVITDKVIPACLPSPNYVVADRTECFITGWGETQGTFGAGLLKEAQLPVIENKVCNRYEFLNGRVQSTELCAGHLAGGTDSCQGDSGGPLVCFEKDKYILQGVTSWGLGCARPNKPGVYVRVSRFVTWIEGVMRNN
# [16] = biological target: T2, Coagulation factor VII (Homo sapiens, UniProt P08709); assay type: single protein
# T2 sequence (P08709 whole entry): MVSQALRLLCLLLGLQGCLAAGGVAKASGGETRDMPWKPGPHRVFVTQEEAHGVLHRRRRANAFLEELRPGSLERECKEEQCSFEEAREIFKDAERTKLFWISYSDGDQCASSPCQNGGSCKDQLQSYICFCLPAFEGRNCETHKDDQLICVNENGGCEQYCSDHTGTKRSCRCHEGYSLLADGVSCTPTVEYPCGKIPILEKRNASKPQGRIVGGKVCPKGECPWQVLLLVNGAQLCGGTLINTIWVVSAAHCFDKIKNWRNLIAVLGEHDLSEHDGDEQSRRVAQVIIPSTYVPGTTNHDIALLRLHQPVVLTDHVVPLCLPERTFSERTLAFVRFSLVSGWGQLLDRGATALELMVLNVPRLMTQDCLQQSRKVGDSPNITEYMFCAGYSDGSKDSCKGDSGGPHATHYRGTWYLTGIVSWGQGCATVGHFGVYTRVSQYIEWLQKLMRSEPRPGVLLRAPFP
# [17] = biological target: Prothrombin (Homo sapiens, UniProt P00734); assay type: single protein
# [18] = biological target: Tissue-type plasminogen activator (Homo sapiens, UniProt P00750); assay type: single protein
# Sequence of Tissue-type plasminogen activator (P00750 whole entry): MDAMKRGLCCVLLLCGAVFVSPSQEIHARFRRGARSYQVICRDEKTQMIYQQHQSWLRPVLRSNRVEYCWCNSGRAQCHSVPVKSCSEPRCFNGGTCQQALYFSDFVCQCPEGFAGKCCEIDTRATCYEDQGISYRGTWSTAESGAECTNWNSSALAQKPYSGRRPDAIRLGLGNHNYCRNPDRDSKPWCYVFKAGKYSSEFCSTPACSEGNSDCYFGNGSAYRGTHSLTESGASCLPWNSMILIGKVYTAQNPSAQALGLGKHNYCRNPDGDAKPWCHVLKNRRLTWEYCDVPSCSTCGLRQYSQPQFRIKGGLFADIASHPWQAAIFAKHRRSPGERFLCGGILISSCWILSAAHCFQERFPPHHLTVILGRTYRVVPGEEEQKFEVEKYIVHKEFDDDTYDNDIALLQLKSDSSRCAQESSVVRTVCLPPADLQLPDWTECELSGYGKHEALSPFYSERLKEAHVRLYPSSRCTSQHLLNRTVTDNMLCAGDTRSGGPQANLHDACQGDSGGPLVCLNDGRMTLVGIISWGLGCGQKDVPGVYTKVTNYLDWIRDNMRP
# [19] = biological target: Coagulation factor X (Homo sapiens, UniProt P00742); assay type: single protein
# Sequence of Coagulation factor X (P00742 41-179 limits assumed): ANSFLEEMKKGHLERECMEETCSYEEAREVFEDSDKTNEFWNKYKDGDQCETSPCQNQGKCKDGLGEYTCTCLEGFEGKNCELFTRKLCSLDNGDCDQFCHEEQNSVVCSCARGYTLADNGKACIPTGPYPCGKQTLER
# Sequence of Coagulation factor X (P00742 235-488 limits assumed): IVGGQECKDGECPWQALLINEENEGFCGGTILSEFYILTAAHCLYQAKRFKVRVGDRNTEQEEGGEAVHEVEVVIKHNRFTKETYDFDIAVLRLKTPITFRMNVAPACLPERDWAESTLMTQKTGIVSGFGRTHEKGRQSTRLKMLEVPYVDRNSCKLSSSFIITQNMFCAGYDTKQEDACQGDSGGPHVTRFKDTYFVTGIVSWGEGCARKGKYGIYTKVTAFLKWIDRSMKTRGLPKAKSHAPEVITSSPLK
# [20] = biological target: T3, Urokinase-type plasminogen activator (Homo sapiens, UniProt P00749); assay type: single protein
# [21] = biological target: Coagulation factor IX (Homo sapiens, UniProt P00740); assay type: single protein
# Sequence of Coagulation factor IX (P00740 47-191 limits assumed): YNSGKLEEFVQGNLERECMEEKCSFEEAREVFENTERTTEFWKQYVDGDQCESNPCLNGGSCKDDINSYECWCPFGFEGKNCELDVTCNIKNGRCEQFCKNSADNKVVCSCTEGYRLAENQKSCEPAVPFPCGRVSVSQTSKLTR
# Sequence of Coagulation factor IX (P00740 227-461 limits assumed): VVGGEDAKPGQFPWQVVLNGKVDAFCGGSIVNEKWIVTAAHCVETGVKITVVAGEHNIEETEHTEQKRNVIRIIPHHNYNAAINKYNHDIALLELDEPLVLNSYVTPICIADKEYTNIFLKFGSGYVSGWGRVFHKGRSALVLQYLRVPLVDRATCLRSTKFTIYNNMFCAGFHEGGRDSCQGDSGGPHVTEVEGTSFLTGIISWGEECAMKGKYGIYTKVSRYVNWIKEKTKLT
# [22] = system: Plasma; assay: Anticoagulant activity in human plasma assessed as concentration required to double the activated partial thromboplastin time incubated for 3 mins followed by calcium chloride addition by aPTT-s reagent based automated coagulometric method; assay type: functional
# [23] = in vitro; conditions: human, Caco-2; remark: listed apart in the source
# [24] = in vitro; conditions: human, Caco-2; remark: listed apart in the source
# [25] = biological target: T3, Urokinase-type plasminogen activator; assay type: ADME
# [26] = system: Plasma; assay: Effect on coagulation in human plasma assessed as concentration required to double the prothrombin time by thromboplastin-DS reagent based automated coagulometric method; assay type: ADME, cell-free
# [27] = Dose normalized Cmax in C57BL/6 mouse at 1 mg/kg, iv bolus injection or 10 mg/kg, po by LC-MS/MS analysis; assay type: ADME, organism-based; conditions: in vivo
# [28] = Terminal half life in C57BL/6 mouse at 1 mg/kg, iv bolus injection or 10 mg/kg, po by LC-MS/MS analysis; assay type: ADME, organism-based; conditions: in vivo, read-out: beta t1/2 (converted)
# [29] = Lipophilicity, log D of compound at pH 6.8; assay type: physicochemical; conditions: buffer
# [30] = biological target: Voltage-gated inwardly rectifying potassium channel KCNH2 (Homo sapiens, UniProt Q12809)
# Sequence of Voltage-gated inwardly rectifying potassium channel KCNH2 (Q12809 whole entry): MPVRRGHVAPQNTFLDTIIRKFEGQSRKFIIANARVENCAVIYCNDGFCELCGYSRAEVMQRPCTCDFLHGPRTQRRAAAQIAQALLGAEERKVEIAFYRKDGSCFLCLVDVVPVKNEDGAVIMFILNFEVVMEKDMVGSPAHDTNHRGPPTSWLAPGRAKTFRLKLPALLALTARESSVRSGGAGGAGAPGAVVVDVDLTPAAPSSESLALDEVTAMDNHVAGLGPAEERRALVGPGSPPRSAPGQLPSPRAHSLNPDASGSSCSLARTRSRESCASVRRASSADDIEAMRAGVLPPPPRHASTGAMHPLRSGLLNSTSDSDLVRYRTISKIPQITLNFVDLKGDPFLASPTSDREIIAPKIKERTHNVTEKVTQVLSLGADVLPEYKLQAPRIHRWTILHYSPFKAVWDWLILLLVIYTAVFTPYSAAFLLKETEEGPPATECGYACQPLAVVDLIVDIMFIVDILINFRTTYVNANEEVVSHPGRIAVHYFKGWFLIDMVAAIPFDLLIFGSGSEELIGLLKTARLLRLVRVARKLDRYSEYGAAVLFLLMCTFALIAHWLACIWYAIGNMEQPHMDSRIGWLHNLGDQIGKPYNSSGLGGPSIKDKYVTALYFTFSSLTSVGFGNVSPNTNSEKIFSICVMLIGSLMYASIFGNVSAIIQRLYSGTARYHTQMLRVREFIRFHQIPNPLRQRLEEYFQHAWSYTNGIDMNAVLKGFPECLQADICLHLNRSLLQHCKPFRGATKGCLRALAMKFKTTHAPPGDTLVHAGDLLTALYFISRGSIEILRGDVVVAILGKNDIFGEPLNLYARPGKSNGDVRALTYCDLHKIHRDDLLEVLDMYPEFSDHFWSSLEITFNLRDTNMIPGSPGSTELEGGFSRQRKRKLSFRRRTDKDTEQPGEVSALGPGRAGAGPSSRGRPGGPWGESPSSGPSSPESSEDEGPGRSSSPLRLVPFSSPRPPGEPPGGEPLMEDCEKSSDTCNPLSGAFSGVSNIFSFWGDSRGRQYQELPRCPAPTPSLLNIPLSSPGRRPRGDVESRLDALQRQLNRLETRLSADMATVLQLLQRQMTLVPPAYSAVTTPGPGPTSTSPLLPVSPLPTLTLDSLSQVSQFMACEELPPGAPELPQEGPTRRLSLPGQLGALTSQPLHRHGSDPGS
# [31] = Volume of distribution at steady state in C57BL/6 mouse at 1 mg/kg, iv bolus injection or 10 mg/kg, po by LC-MS/MS analysis; assay type: ADME, organism-based; conditions: in vivo, read-out: Vdss
# [32] = Dose normalized AUC in C57BL/6 mouse at 1 mg/kg, iv by LC-MS/MS analysis; assay type: ADME, organism-based; conditions: in vivo
# Sequence of Plasma kallikrein (P03952 20-390 limits assumed): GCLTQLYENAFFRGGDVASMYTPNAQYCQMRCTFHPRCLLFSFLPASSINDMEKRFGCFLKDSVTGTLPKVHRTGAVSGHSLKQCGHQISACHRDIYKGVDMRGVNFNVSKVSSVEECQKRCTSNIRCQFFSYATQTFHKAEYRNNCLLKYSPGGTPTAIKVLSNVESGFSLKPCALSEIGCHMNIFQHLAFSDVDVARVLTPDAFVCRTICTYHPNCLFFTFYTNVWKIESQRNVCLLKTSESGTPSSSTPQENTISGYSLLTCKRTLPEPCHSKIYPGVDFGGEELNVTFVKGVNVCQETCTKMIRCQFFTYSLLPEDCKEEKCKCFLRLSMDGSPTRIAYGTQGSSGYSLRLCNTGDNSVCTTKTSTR
# Sequence of Plasma kallikrein (P03952 391-638 limits assumed): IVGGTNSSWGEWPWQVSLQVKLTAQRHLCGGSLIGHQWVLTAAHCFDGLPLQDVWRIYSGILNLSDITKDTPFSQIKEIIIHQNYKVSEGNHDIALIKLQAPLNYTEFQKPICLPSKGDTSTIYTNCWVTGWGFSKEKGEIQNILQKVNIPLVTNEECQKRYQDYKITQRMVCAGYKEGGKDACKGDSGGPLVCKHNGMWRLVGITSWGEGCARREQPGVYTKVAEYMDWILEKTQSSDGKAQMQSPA
IC50 [2] [nM],IC50 [3] [nM],IC50 [6] [nM],IC50 [10] [nM],IC50 [15] [nM],IC50 [16] [nM],IC50 [17] [nM],IC50 [18] [nM],IC50 [19] [nM],IC50 [20] [nM],IC50 [21] [nM],SMILES,also measured
41,6620,> 100000,17,> 100000,45100,9820,4130,12500,2480,11300,Cc1cccc(C(=O)O)c1OCCc1cc(-c2ccc3c(c2)[C@H](N)CO3)cc(C(C)C)c1,
25,1190,1320,12,590,3270,50,90,240,20,40,CC(C)c1cc(CCOc2ccccc2C(=O)O)cc(-c2ccc3c(c2)[C@H](N)CO3)c1,
160,8110,27200,40,46200,12500,7430,6680,16300,1130,15500,COc1cccc(C(=O)O)c1OCC(O)c1cc(-c2ccc3c(c2)[C@H](N)CO3)cc(C(C)C)c1 (mixture of isomers),
3100,,,,2200,1400,,,,,,NCc1cccc(-c2cccc(COc3ccccc3CC(=O)O)c2)c1,Cmax/dose [27]: 2591 nM; half-life [28]: 1.6 h; logD [29]: 1.91; IC50 [30]: > 30000 nM; Vd [31]: 0.7 L/kg; AUC/dose [32]: 3284 nM·h
1200,,,970,,,,,,,,NC1COc2ccc(C(=O)N3C[C@@H](c4ccccc4)C[C@H]3C(=O)Nc3cccc(Cl)c3)cc21 (mixture of isomers),
1300,,340,200,,,,,,,,NC1COc2ccc(-c3cccc(COc4ccccc4CC(=O)O)c3)cc21 (racemic),
,,,2520,,,,,,,,CC(C)c1cc(CCNc2ccccc2C(=O)O)cc(-c2ccc3c(c2)[C@H](N)CO3)c1,
9,240,17500,3,30800,28300,9090,2200,6210,400,10200,COc1cccc(C(=O)O)c1OCCc1cc(-c2ccc3c(c2)[C@H](N)CO3)cc(C(C)C)c1,
16,45,8920,< 0.7,17400,16700,7210,3700,11200,1420,13400,CC(C)c1cc(-c2ccc3c(c2)[C@H](N)CO3)cc(C(O)Cn2ccc3cccc(C(=O)O)c32)c1 (mixture of isomers),
330,430,230,100,,,,,,,,CC(C)(O)c1cc(COc2ccccc2CC(=O)O)cc(-c2ccc3c(c2)CNCC3)c1,

# The next lines start with the molecule.
SMILES,IC50 [2] [nM],IC50 [3] [nM],IC50 [6] [nM],IC50 [10] [nM],IC50 [15] [nM],IC50 [16] [nM],IC50 [17] [nM],IC50 [18] [nM],IC50 [19] [nM],IC50 [20] [nM],IC50 [21] [nM],also measured
CC(C)(O)c1cc(COc2ccccc2CC(=O)O)cc(-c2ccc3c(c2)[C@H](N)CO3)c1,6,170,320,4,,,,,,,,AUC/dose [1]: 186 nM·h; Vd [4]: 0.4 L/kg; half-life [5]: 1.7 h; bioavailability [7]: 3%; Papp B→A [8]: 19 ×10⁻⁶ cm/s; solubility thermodynamic [9]: > 1000 µM; clearance [11]: 19 mL/min/kg; Papp [12]: Bld; Cmax/dose [13]: 99 nM; Ratio IC50 [14]: 40
CC(C)c1cc(-c2ccc3c(c2)[C@H](N)CO3)cc([C@@H]2CNc3cccc(CC(=O)O)c3O2)c1,1,10,60,< 0.7,690,2000,30,50,220,20,30,2aPTT [22]: 0.4 µM
CC(C)c1cc(-c2ccc3c(c2)[C@H](N)CO3)cc(C(O)CN2CCc3cccc(C(=O)O)c32)c1 (mixture of isomers),2,170,73600,2,9580,8750,6140,490,1710,250,7860,Ratio IC50 [14]: 30000
CC1(C)COc2c(COc3ccccc3CC(=O)O)cc(-c3ccc4c(c3)[C@H](N)CO4)cc21,7,85,50,3,6300,7100,130,100,840,,210,AUC/dose [1]: 6525 nM·h; Vd [4]: 1 L/kg; half-life [5]: 6.4 h; Papp A→B [23]: 12 ×10⁻⁶ cm/s; efflux ratio [24]: 1; bioavailability [7]: 61%; Papp B→A [8]: 12 ×10⁻⁶ cm/s; IC50 [25]: 16 nM; solubility thermodynamic [9]: < 4 µM; 2aPTT [22]: 2.5 µM; clearance [11]: 4 mL/min/kg; Cmax/dose [13]: 1126 nM; Ratio IC50 [14]: 17; 2PT [26]: 19.8 µM
CC(C)c1cc(CCOc2c(Cl)cccc2C(=O)O)cc(-c2ccc3c(c2)[C@H](N)CO3)c1,21,5490,34200,15,34000,20500,6220,3670,11100,930,9600,
O=C(O)Cc1ccccc1OCc1cccc(-c2ccc3c(c2)CNCC3)c1,,,800,400,,,,,,,,
CC(C)(C(N)=O)c1cc(COc2ccccc2CC(=O)O)cc(-c2ccc3c(c2)[C@H](N)CO3)c1,11,67,320,9,,,,,,,,Papp B→A [8]: 4 ×10⁻⁶ cm/s; solubility thermodynamic [9]: 780 µM; Papp [12]: Bld; Ratio IC50 [14]: 80
CC(C)(C#N)c1cc(COc2ccccc2CC(=O)O)cc(-c2ccc3c(c2)[C@H](N)CO3)c1,2,50,40,4,,,,,,,,AUC/dose [1]: 171 nM·h; Vd [4]: 0.7 L/kg; half-life [5]: 0.3 h; Papp A→B [23]: 1.4 ×10⁻⁶ cm/s; efflux ratio [24]: 30; bioavailability [7]: 25%; Papp B→A [8]: 41 ×10⁻⁶ cm/s; solubility thermodynamic [9]: 60 µM; clearance [11]: 55 mL/min/kg; Cmax/dose [13]: 137 nM
CC1(C)COc2c(COc3ccccc3CC(=O)O)cc(-c3ccc4c(c3)[C@H](N)CCO4)cc21,4,260,15000,6,14000,75000,860,190,4300,,1600,IC50 [25]: 950 nM; Ratio IC50 [14]: 2500
